# Measurements from patent publication US9523081B2, “Method for enhancing therapeutic effect of stem cells on autoimmune diseases, cardiovascular diseases, and/or hematological diseases” (GWO XI STEM CELL APPLIED TECHNOLOGY CO., LTD., priority 2014, dated 2016).
# Assays:
# Type in all cases: cell-based
# IL-6 = assay: RT-PCR gene expression of IL-6 in ligustilide-treated ADSCs; settings: for IL-6 expression level (Image J): ADSCs, 24 hours
# Description: (§1) ADSCs were cultured in the K-SFM as prepared in Example 1 at 37° C. in 5% CO2. The ADSCs were divided into […], and each group was treated with different concentrations (0, 0.625, 1.25, 2.5, 5 and 10 μg/ml) of (Z)-ligustilide for 24 hours, respectively.
# (§2) The culture medium were removed from each group of stem cells in Experiment (1), then 1 ml of TRIzol reagent (Invitrogen) was added into each well and incubated at room temperature for 5 minutes. The stem cells were scraped by using a spatula and placed into a 1.5 ml microtube. Then, the cells were lysed completely, and 0.2 ml of trichloromethane (CHCl3) was added into the microtube. The microtube was shaken up and down for 15 seconds and incubated at room temperature for 2 to 3 minutes. The mixture was centrifuged (at 12000 g for 15 minutes at 4° C.). The supernatant was transferred into another 1.5 ml microtube, and 0.5 ml of isopropanol was added therein and mixed completely. The mixture was incubated at room temperature for 10 minutes and then centrifuged (at 12000 g for 10 minutes at 4° C.). The supernatant was removed. The remained sediment was washed with 1 ml of 75% ethanol-containing DEPC water (i.e. diethylpyrocarbonate-treated H2O) and centrifuged (7500 g at 4° C. for 5 minutes) again. The supernatant was removed. The remained sediment was dried by vacuum-pumping. The dried sediment was dissolved in about 0.01 ml to 0.02 ml of DEPC water to obtain total RNA of ADSCs of experimental group and blank group, respectively. The absorbance at a wavelength of 260 nm (OD260) of the samples were determined by a spectrophotometer (DU-800, Beckman) to evaluate the concentration of RNA. Then, the RNA was stored at −80° C. and used in the following Experiment (3).
# (§3) The effects of ligustilide on increasing the expression of differentiation-promoting genes (e.g., BDNF and NURR1), increasing the expression of homing-promoting genes (e.g., CXCR4 and SDF1αβ), and decreasing the expression of inflammatory genes (e.g., IL-6 and IL-8) was analyzed by reverse transcription polymerase chain reaction (RT-PCR), wherein the gene expression of glyceraldehyde 3-phosphate dehydrogenase (GAPDH) was served as a control group, and the steps were described as follows.
# (§4) The total RNA provided in the above Experiment (2) was reverse transcribed into cDNA. 2.5 μl of each primer (10 pM) shown in Table 1A, 7.5 μl of ddH2O, and 12.5 μl of EconoTaq® PLUS GREEN 2X Master Mix (Lucigen, Middleton, Wis., USA) were mixed with 2.5 μl of the cDNA. The mixture was placed in a RT-PCR machine. The reaction conditions were set as follows: i) 94° C. for 30 seconds, 55° C. for 30 seconds, and […], with 30 cycles of the aforesaid steps; ii) 72° C. for 10 minutes; and iii) cooling to 4° C. to stop the reaction
# (§5) The obtained RT-PCR product was analyzed by 1.5% agarose gel electrophoresis for 30 minutes (voltage: 100 volts (V)). Then, the gel was placed in and stained with ethidium bromide (EtBr) for 10 minutes, and photographed by a gel image documentation system (DOC PRINT DP-001FDC, VilberLourmat France).
# IL-8 = assay: RT-PCR gene expression of IL-8 in ligustilide-treated ADSCs; settings: for IL-8 expression level (Image J): ADSCs, 24 hours
# Description: as §1, §2, §3, §4, §5
# NURR1 = assay: RT-PCR gene expression of NURR1 in ligustilide-treated ADSCs; settings: for NURR1 expression level (Image J): ADSCs, 24 hours
# Description: as §1, §2, §3, §4, §5
# BDNF = assay: RT-PCR gene expression of BDNF in ligustilide-treated ADSCs; settings: for BDNF expression level (Image J): ADSCs, 24 hours
# Description: as §1, §2, §3, §4, §5
# SDF1αβ = assay: RT-PCR gene expression of SDF1αβ in ligustilide-treated ADSCs; settings: for SDF1αβ expression level (Image J): ADSCs, 24 hours
# Description: as §1, §2, §3, §4, §5
# CXCR4 = assay: RT-PCR gene expression of CXCR4 in ligustilide-treated ADSCs; settings: for CXCR4 expression level (Image J): ADSCs, 24 hours
# Description: as §1, §2, §3, §4, §5
# [1] = ADSCs treated with ligustilide, compared to GAPDH control, in words
compound,measurement,setting,value
"CCC/C=C1\OC(=O)C2=C1CCC=C2 [ligustilide, (Z)-ligustilide]",gene expression level of IL-6,IL-6; [1],decreased
same,IL-6 expression level (Image J),IL-6; 0.625 μg/ml ligustilide,7756.00
same,IL-6 expression level (Image J),IL-6; 1.25 μg/ml ligustilide,8204.13
same,IL-6 expression level (Image J),IL-6; 2.5 μg/ml ligustilide,5629.93
same,IL-6 expression level (Image J),IL-6; 5 μg/ml ligustilide,2804.03
same,gene expression level of IL-8,IL-8; [1],decreased
same,IL-8 expression level (Image J),IL-8; 0.625 μg/ml ligustilide,6102.10
same,IL-8 expression level (Image J),IL-8; 1.25 μg/ml ligustilide,9691.71
same,IL-8 expression level (Image J),IL-8; 2.5 μg/ml ligustilide,5840.23
same,IL-8 expression level (Image J),IL-8; 5 μg/ml ligustilide,3487.33
same,gene expression level of NURR1,NURR1; [1],increased
same,NURR1 expression level (Image J),NURR1; 0.625 μg/ml ligustilide,0.00
same,NURR1 expression level (Image J),NURR1; 1.25 μg/ml ligustilide,0.00
same,NURR1 expression level (Image J),NURR1; 2.5 μg/ml ligustilide,6694.43
same,NURR1 expression level (Image J),NURR1; 5 μg/ml ligustilide,3360.55
same,gene expression level of BDNF,BDNF; [1],increased
same,BDNF expression level (Image J),BDNF; 0.625 μg/ml ligustilide,5411.77
same,BDNF expression level (Image J),BDNF; 1.25 μg/ml ligustilide,4915.77
same,BDNF expression level (Image J),BDNF; 2.5 μg/ml ligustilide,7069.72
same,BDNF expression level (Image J),BDNF; 5 μg/ml ligustilide,5083.65
same,gene expression level of SDF1αβ,SDF1αβ; [1],increased
same,SDF1αβ expression level (Image J),SDF1αβ; 0.625 μg/ml ligustilide,6766.31
same,SDF1αβ expression level (Image J),SDF1αβ; 1.25 μg/ml ligustilide,4065.23
same,SDF1αβ expression level (Image J),SDF1αβ; 2.5 μg/ml ligustilide,4791.36
same,SDF1αβ expression level (Image J),SDF1αβ; 5 μg/ml ligustilide,5767.31
same,gene expression level of CXCR4,CXCR4; [1],increased
same,CXCR4 expression level (Image J),CXCR4; 0.625 μg/ml ligustilide,2744.11
same,CXCR4 expression level (Image J),CXCR4; 1.25 μg/ml ligustilide,3719.23
same,CXCR4 expression level (Image J),CXCR4; 2.5 μg/ml ligustilide,6539.03
same,CXCR4 expression level (Image J),CXCR4; 5 μg/ml ligustilide,4138.77
